Experimental findings from ChEMBL document CHEMBL1909046, “DrugMatrix in vitro pharmacology data” are described below.

The target of assay [1] is T1, Angiotensin-converting enzyme (Oryctolagus cuniculus, UniProt P12822).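 Further: enzymatic inhibition of angiotensin-converting enzyme measured with FAPGG as the substrate; in other assays of this panel Not Active means under 50% inhibition at 10 µM.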
T1 sequence (P12822 whole entry): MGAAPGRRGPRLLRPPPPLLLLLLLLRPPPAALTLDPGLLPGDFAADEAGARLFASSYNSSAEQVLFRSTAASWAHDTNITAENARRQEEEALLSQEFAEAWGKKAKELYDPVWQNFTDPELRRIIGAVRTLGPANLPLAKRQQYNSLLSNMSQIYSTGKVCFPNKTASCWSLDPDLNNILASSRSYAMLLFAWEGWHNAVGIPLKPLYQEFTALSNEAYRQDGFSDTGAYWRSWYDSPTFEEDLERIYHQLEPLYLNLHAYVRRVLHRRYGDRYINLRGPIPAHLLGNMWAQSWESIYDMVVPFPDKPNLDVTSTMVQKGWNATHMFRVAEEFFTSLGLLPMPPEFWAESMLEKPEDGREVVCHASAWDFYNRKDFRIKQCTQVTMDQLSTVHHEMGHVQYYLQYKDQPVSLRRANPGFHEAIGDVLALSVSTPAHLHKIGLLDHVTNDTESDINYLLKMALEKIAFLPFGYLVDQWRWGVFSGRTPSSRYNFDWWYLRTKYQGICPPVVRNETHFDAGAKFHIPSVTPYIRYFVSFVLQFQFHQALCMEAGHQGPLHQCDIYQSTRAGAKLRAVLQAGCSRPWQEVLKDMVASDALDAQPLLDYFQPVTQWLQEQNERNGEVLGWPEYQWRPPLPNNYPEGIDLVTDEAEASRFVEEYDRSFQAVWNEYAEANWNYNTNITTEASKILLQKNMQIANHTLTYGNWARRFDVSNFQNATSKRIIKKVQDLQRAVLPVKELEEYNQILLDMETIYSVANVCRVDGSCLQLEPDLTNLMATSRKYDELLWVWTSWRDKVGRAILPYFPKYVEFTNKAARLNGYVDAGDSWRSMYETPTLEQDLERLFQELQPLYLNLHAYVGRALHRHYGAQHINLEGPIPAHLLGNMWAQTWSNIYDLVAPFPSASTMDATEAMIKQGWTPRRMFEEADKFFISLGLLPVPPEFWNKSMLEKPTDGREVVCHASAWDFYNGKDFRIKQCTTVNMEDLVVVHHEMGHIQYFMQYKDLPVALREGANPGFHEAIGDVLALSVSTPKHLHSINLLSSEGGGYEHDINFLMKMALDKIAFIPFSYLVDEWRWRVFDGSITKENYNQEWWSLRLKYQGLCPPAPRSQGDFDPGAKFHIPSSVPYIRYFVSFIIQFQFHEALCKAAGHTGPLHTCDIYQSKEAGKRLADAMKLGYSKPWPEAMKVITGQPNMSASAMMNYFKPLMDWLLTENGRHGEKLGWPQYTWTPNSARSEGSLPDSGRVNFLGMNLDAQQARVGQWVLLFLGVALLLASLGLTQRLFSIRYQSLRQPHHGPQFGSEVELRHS
It counts as tissue-based, Lung.

The nature of assay [2]: DRUGMATRIX: Phosphodiesterase PDE4 enzyme inhibition (substrate: [3H]cAMP + cAMP). The note with it: u-937; Not Active = under 50% inhibition at 10 µM.
Assay [3] deals with T2, Cysteinyl leukotriene receptor 1 (Homo sapiens, UniProt Q9Y271).
T2 sequence (Q9Y271 whole entry): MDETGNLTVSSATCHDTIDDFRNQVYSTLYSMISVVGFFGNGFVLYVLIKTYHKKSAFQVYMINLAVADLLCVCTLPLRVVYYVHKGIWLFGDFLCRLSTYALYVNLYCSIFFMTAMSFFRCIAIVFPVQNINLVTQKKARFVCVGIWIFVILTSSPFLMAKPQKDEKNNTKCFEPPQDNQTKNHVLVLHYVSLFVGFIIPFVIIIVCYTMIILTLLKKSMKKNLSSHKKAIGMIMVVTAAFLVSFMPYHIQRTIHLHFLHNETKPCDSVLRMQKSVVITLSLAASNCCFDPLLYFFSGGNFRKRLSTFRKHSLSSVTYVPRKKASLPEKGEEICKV
Type of assay: cell membranes, Membrane. The settings on record: cho-k1.

A further assay has as its target T3, Glucocorticoid receptor (Homo sapiens, UniProt P04150). Further: in other assays of this panel Not Active means under 50% inhibition at 10 µM.
T3 sequence (P04150 whole entry): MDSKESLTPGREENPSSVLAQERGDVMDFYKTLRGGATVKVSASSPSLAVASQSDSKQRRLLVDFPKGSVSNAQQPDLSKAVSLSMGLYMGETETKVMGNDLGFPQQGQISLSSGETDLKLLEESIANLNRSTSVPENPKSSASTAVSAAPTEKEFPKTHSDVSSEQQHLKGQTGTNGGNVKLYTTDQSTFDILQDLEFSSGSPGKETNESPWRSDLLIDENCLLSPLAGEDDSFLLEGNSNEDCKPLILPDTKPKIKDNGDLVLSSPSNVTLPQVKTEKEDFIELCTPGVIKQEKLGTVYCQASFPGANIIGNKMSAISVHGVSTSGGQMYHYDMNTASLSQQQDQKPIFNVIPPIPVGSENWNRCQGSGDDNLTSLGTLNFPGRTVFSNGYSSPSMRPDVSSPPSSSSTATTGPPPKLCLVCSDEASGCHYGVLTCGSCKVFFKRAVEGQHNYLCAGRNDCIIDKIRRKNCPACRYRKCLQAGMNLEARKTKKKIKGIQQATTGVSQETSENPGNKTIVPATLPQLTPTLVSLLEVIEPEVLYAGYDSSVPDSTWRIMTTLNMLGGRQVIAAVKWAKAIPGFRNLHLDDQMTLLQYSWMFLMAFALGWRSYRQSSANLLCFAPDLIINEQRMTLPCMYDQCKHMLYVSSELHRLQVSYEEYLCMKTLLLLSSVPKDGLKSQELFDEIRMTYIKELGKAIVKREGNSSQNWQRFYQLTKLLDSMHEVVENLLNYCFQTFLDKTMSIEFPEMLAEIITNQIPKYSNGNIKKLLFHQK
The settings on record: hela s3.

Assay [4] concerns the target Sodium-dependent dopamine transporter (Homo sapiens, UniProt Q01959). The assay is described as follows: DRUGMATRIX: Dopamine Transporter radioligand binding (ligand: [125I] RTI-55). It counts as cell membranes, CHO-K1, Membrane. The settings on record: Not Active = under 50% inhibition at 10 µM.
For assay [5], the target named is T4, Type-2 angiotensin II receptor (Homo sapiens, UniProt P50052). Further: in other assays of this panel Not Active means under 50% inhibition at 10 µM.
T4 sequence (P50052 whole entry): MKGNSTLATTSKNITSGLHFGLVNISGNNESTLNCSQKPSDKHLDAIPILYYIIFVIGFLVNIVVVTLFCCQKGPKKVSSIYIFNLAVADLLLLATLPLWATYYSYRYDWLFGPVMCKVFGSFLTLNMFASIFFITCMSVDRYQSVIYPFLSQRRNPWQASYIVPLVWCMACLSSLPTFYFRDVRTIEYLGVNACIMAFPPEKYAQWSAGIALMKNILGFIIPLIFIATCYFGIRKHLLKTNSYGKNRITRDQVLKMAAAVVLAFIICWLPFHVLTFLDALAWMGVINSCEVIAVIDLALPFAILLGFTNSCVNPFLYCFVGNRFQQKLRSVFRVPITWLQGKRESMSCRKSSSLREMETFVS
Type of assay: cell-based. The settings on record: cho-k1.

In general, IC50 refers to the point on the concentration scale where inhibition reaches its midpoint. Usually Ki stands for the dissociation constant of the complex between target and ligand, obtained from inhibition or displacement.

Sodium-dependent dopamine transporter, sequence (Q01959 whole entry): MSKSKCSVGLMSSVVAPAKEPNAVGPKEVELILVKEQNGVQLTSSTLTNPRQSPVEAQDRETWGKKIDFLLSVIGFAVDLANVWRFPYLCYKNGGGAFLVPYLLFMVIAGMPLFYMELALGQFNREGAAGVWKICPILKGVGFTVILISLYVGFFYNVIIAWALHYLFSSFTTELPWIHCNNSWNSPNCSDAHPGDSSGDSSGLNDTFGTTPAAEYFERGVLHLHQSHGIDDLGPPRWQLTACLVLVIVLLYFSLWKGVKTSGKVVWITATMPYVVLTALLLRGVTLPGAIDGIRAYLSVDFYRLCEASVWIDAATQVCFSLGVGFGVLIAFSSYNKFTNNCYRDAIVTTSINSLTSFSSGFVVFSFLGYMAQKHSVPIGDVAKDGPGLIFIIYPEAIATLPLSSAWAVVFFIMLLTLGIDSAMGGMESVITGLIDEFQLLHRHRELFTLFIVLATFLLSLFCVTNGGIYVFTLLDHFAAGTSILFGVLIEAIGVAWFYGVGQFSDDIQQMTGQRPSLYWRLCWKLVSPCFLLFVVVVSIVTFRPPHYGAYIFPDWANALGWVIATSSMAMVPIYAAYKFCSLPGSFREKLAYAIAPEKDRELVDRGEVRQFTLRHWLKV

As to `COC1=C(OC)C(=O)C(CCCCCCCCCCO)=C(C)C1=O` [IDEBENONE], the IC50 result (in assay [1]; in assay [2]; in assay [3]; at Glucocorticoid receptor; in assay [4] (cho-k1); in assay [5]) was “Not Active” each time. The inhibition constant Ki result in assay [2] is “Not Active”.

Regarding `COc1ccc2[nH]cc(CCNC(C)=O)c2c1` [MELATONIN], the half-maximal inhibitory concentration (IC50) entry (in assay [1]; in assay [2]; in assay [3]; against Glucocorticoid receptor; in assay [4] (cho-k1); in assay [5]) was “Not Active” in each case. Besides, in assay [2], the inhibitory constant (Ki) entry is “Not Active”.

In the case of `O=C/C=C/c1ccccc1`, the concentration for half-maximal inhibition (IC50) entry (in assay [1]; in assay [2]; in assay [3]; against Glucocorticoid receptor; in assay [4] (cho-k1); in assay [5]) was “Not Active” throughout. Moreover, in assay [2], the inhibition constant (Ki) entry is “Not Active”.

Regarding `CN(C)CC[C@@H](c1ccc(Cl)cc1)c1ccccn1` [DEXCHLORPHENIRAMINE], the IC50 result in assay [1] is “Not Active”; in assay [2], “Not Active”; in assay [3], “Not Active”; on Glucocorticoid receptor, “Not Active”; in assay [4] (read-out: IC50), 931 nM; in assay [5], “Not Active”. Further, the inhibition constant Ki result is “Not Active” in assay [2] and 739 nM in assay [4] (read-out: Ki).

For the molecule `COc1ccc2cc3[n+](cc2c1OC)CCc1cc2c(cc1-3)OCO2.[Cl-]` [BERBERINE CHLORIDE], the IC50 entry (in assay [1]; in assay [2]; in assay [3]; at Glucocorticoid receptor; in assay [4] (cho-k1); in assay [5]) was “Not Active” in each case. Besides, the Ki result in assay [2] is “Not Active”.

`CC(=O)O[C@H]1C(=O)[C@@]2(C)[C@H]([C@H](OC(=O)c3ccccc3)[C@]3(O)C[C@H](OC(=O)[C@H](O)[C@@H](NC(=O)c4ccccc4)c4ccccc4)C(C)=C1C3(C)C)[C@]1(OC(C)=O)CO[C@@H]1C[C@@H]2O` [PACLITAXEL]: the 50% inhibitory concentration (IC50) result (in assay [1]; in assay [2]; in assay [3]; at Glucocorticoid receptor; in assay [4] (cho-k1); in assay [5]) was “Not Active” each time. For the same molecule, the inhibition constant (Ki) result in assay [2] is “Not Active”.

As to `CC1(C)S[C@@H]2[C@H](NC(=O)[C@H](N)c3ccccc3)C(=O)N2[C@H]1C(=O)O` [AMPICILLIN], the IC50 entry (in assay [1]; in assay [2]; in assay [3]; at Glucocorticoid receptor; in assay [4] (cho-k1); in assay [5]) was “Not Active” in each case. In assay [2], the inhibition constant Ki entry is “Not Active”.

`Cn1c(=O)c2c(ncn2CC(O)CO)n(C)c1=O` (centres undefined) [DYPHYLLINE]: the half-inhibitory concentration (IC50) entry (in assay [1]; in assay [2]; in assay [3]; on Glucocorticoid receptor; in assay [4] (cho-k1); in assay [5]) was “Not Active” each time. For the same molecule, the Ki entry in assay [2] was “Not Active”.

Consider `CN(C)[C@@H]1C(O)=C(C(N)=O)C(=O)[C@@]2(O)C(O)=C3C(=O)c4c(O)ccc(Cl)c4[C@@](C)(O)[C@H]3C[C@@H]12` [CHLORTETRACYCLINE], for which the IC50 entry (in assay [1]; in assay [2]; in assay [3]; against Glucocorticoid receptor; in assay [4] (cho-k1); in assay [5]) was “Not Active” throughout. Further, the Ki result in assay [2] is “Not Active”.

On to `C[C@H]1O[C@@H](n2cc(F)c(=O)[nH]c2=O)[C@H](O)[C@@H]1O` [DOXIFLURIDINE], for which the IC50 result (in assay [1]; in assay [2]; in assay [3]; at Glucocorticoid receptor; in assay [4] (cho-k1); in assay [5]) was “Not Active” throughout. Besides, the Ki entry in assay [2] was “Not Active”.

Regarding `CC(C(=O)O)c1ccc2oc(-c3ccc(Cl)cc3)nc2c1` (centres undefined) [BENOXAPROFEN], the IC50 result (in assay [1]; in assay [2]; in assay [3]; at Glucocorticoid receptor; in assay [4] (cho-k1); in assay [5]) was “Not Active” each time. The inhibition constant (Ki) entry in assay [2] is “Not Active”.

For `Oc1c(Cl)cc(Cl)c(Cl)c1Cc1c(O)c(Cl)cc(Cl)c1Cl` [HEXACHLOROPHENE], the concentration for half-maximal inhibition (IC50) entry (in assay [1]; in assay [2]; in assay [3]; against Glucocorticoid receptor; in assay [4] (cho-k1); in assay [5]) was “Not Active” each time. In addition, the Ki result in assay [2] is “Not Active”.

Consider `C#C[C@]1(OC(C)=O)CC[C@H]2[C@@H]3CCC4=C[C@@H](OC(C)=O)CC[C@@H]4[C@H]3CC[C@@]21C` [ETHYNODIOL DIACETATE], for which the half-maximal inhibitory concentration (IC50) entry (in assay [1]; in assay [2]; in assay [3]; on Glucocorticoid receptor; in assay [4] (cho-k1); in assay [5]) was “Not Active” in each case. In addition, the inhibition constant (Ki) result in assay [2] is “Not Active”.

`C[C@@H](CO)NC(=O)[C@@H]1C=C2c3cccc4[nH]cc(c34)C[C@H]2N(C)C1` [ERGONOVINE]: the concentration for half-maximal inhibition (IC50) result (in assay [1]; in assay [2]; in assay [3]; on Glucocorticoid receptor; in assay [4] (cho-k1); in assay [5]) was “Not Active” each time. Besides, the inhibition constant Ki result in assay [2] is “Not Active”.
